Test results from article PMC4867616, “Imaging of Cerebral Amyloid Angiopathy with Bivalent ^99mTc-Hydroxamamide Complexes” (Scientific Reports, 2016).
Values joined by “and” are separate entries in the source; they are usually repeats but may differ in a detail not shown here. Identical values can stand only once.

Assays:
[1] = Ex vivo biodistribution in normal mice; parameters: species or system ddY mice; conditions: i.v., mean (SD), 5 animals
Method: To evaluate brain uptake of ^99mTc-Ham complexes, biodistribution experiments of ^99mTc-Ham complexes were performed in normal mice. We selected ^18F-florbetapir as a control and compared the results of ^99mTc-Ham complexes with that of ^18F-florbetapir (Fig. 2). The brain uptake of [^99mTc]SB1A, [^99mTc]SB2A, [^99mTc]BT1B, and [^99mTc]BT2B at 2 min postinjection was 0.37, 0.28, 0.36, and 0.37% injected dose (ID)/g, respectively. The radioactivity in the brains remained low until 60 min postinjection. The results of the biodistribution study are shown in Table S1 in Supplementary information.
A saline solution (100 μL) of ^99mTc-Ham complexes (20 kBq) containing EtOH (10 μL) was injected directly into the tail vein of ddY mice (male, 5 weeks old). The mice were sacrificed at 2, 10, 30, and 60 min postinjection. The organs of interest were removed and weighed, and radioactivity was measured using a γ counter (PerkinElmer). The %ID/g of samples was calculated by comparing the sample counts with the count of the diluted initial dose.
*Corresponding author: M. Ono. Address: 46-29 Yoshida Shimoadachi-cho, Sakyo-ku, Kyoto 606-8501, Japan, Phone: +81-75-753-4608, Fax: +81-75-753-4568, E-mail: ono@pharm.kyoto-u.ac.jp. Ex vivo biodistribution in normal mice. A saline solution (100 μL) of ^99mTc-Ham complexes (20 kBq) containing EtOH (10 μL) was injected directly into the tail vein of ddY mice (male, 5 weeks old). The mice were sacrificed at 2, 10, 30, and 60 min postinjection. The organs of interest were removed and weighed, and radioactivity was measured using a γ counter (Wallac 1470 Wizard; PerkinElmer, Massachusetts, USA). Percentage dose per organ was calculated by comparing the tissue counts to suitably diluted aliquots of the injected material. The %dose/g of samples was calculated by comparing the sample counts with the count of the diluted initial dose.

[2] = biological target: T1, Aβ depositions in Tg2576 mouse brain (Homo sapiens, UniProt P05067); test: Ex vivo autoradiography using Tg2576 and wild-type mice; assay type: in vivo; conditions: for Selectivity for vascular versus parenchymal amyloid aggregates (ex vivo autoradiography, thioflavin-S and anti-CD31 staining): Tg2576 mice, 30 min postinjection
T1 construct: Aβ(1–40) aggregates, the predominant amyloid found in CAA; tissue Taconic Farms, Inc. (New York, USA); host or cells: brain of living female Tg2576 transgenic mice
T1 sequence (P05067 672-711 limits assumed): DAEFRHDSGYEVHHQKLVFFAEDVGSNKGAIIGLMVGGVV
Method: Tg2576 transgenic mice (female, 29 months old) and wild-type mice (female, 29 months old) were used as the AD model and age-matched control, respectively. A saline solution (150 μL) of [^99mTc]SB2A or [^99mTc]BT2B (18.5 MBq) containing EtOH (30 μL) was injected through the tail vein. The mice were sacrificed at 30 min postinjection. The brains were immediately removed, embedded in carboxymethylcellulose solution and then frozen in a dry ice/hexane bath. Sections of 30 μm were cut and exposed to a BAS imaging plate (Fuji Film) overnight. Autoradiographic images were obtained using a BAS5000 scanner system (Fuji Film). After autoradiographic examination, the same sections were stained by thioflavin-S to confirm the presence of Aβ depositions. For thioflavin-S fluorescent staining, the sections were immersed in a 100 μM thioflavin-S solution containing 50% EtOH for 3 min, washed in 50% EtOH for 1 min two times, and examined using a microscope (Keyence Corp.) equipped with a GFP-BP filter set. Additionally, the same sections were immunostained by anti-CD31 antibody to confirm the presence of endothelial cells. For immunohistochemical staining of CD31, the sections were incubated in PBST for 5 min three times, and incubated with anti-CD31 primary antibody (SZ31; Abcam, Cambridgeshire, U.K., dilution 1:50) at room temperature overnight. After three 5-min incubations in PBST, anti-rabbit secondary antibody (Dako, California, USA) incubation was carried out at room temperature for 3 h. Subsequently, the sections were incubated in PBST for 5 min three times, and incubated with diaminobenzidine (Merck) as a chromogen for 5 min. After washing with water, the sections were observed under a microscope (Keyence Corp.).
Ex vivo autoradiography using Tg2576 and wild-type mice. Tg2576 transgenic mice (female, 29 months old) and wild-type mice (female, 29 months old) were used as the Alzheimer’s model and age-matched control, respectively. A saline solution (150 µL) of [^99mTc]BT2B (18.5 MBq) containing ethanol (30 µL) was injected through the tail vein. […]

Compound: CN(C)c1ccc(/C=C/c2ccc(C3=N[O][99Tc-]4(=[O])([NH]3)[NH2+]C(c3ccc(/C=C/c5ccc(N(C)C)cc5)cc3)=N[O]4)cc2)cc1 (single isomer, unassigned) [[^99mTc]SB2A]
- Biodistribution of radioactivity, Heart ([1]; 2 min after injection): 12.64 (1.59) % injected dose per gram
- Biodistribution of radioactivity, Intestine ([1]; 2 min after injection): 1.52 (0.25) % injected dose per gram
- Biodistribution of radioactivity, Kidney ([1]; 2 min after injection): 5.03 (0.52) % injected dose per gram
- Biodistribution of radioactivity, Liver ([1]; 2 min after injection): 25.52 (1.67) % injected dose per gram
- Biodistribution of radioactivity, Lung ([1]; 2 min after injection): 14.35 (1.86) % injected dose per gram
- Biodistribution of radioactivity, Pancreas ([1]; 2 min after injection): 3.35 (0.60) % injected dose per gram
- Biodistribution of radioactivity, Spleen ([1]; 2 min after injection): 10.76 (0.96) % injected dose per gram
- Biodistribution of radioactivity, Stomach ([1]; 2 min after injection): 3.15 (0.56) % injected dose per organ
- Biodistribution of radioactivity, Heart ([1]; 10 min after injection): 6.57 (0.92) % injected dose per gram
- Biodistribution of radioactivity, Intestine ([1]; 10 min after injection): 1.71 (0.11) % injected dose per gram
- Biodistribution of radioactivity, Kidney ([1]; 10 min after injection): 3.57 (0.41) % injected dose per gram
- Biodistribution of radioactivity, Liver ([1]; 10 min after injection): 29.35 (2.85) % injected dose per gram
- Biodistribution of radioactivity, Lung ([1]; 10 min after injection): 7.79 (0.50) % injected dose per gram
- Biodistribution of radioactivity, Pancreas ([1]; 10 min after injection): 2.12 (0.08) % injected dose per gram
- Biodistribution of radioactivity, Spleen ([1]; 10 min after injection): 11.24 (2.26) % injected dose per gram
- Biodistribution of radioactivity, Stomach ([1]; 10 min after injection): 8.78 (1.32) % injected dose per organ
- Biodistribution of radioactivity, Heart ([1]; 30 min after injection): 8.58 (1.32) % injected dose per gram
- Biodistribution of radioactivity, Intestine ([1]; 30 min after injection): 2.64 (0.36) % injected dose per gram
- Biodistribution of radioactivity, Kidney ([1]; 30 min after injection): 3.61 (0.29) % injected dose per gram
- Biodistribution of radioactivity, Liver ([1]; 30 min after injection): 27.04 (3.90) % injected dose per gram
- Biodistribution of radioactivity, Lung ([1]; 30 min after injection): 7.26 (1.02) % injected dose per gram
- Biodistribution of radioactivity, Pancreas ([1]; 30 min after injection): 2.06 (0.11) % injected dose per gram
- Biodistribution of radioactivity, Spleen ([1]; 30 min after injection): 8.91 (3.26) % injected dose per gram
- Biodistribution of radioactivity, Stomach ([1]; 30 min after injection): 16.13 (2.33) % injected dose per organ
- Biodistribution of radioactivity, Heart ([1]; 60 min after injection): 8.27 (1.19) % injected dose per gram
- Biodistribution of radioactivity, Intestine ([1]; 60 min after injection): 4.05 (0.55) % injected dose per gram
- Biodistribution of radioactivity, Kidney ([1]; 60 min after injection): 3.39 (0.20) % injected dose per gram
- Biodistribution of radioactivity, Liver ([1]; 60 min after injection): 24.95 (3.38) % injected dose per gram
- Biodistribution of radioactivity, Lung ([1]; 60 min after injection): 6.48 (0.49) % injected dose per gram
- Biodistribution of radioactivity, Pancreas ([1]; 60 min after injection): 1.83 (0.07) % injected dose per gram
- Biodistribution of radioactivity, Spleen ([1]; 60 min after injection): 7.58 (2.60) % injected dose per gram
- Biodistribution of radioactivity, Stomach ([1]; 60 min after injection): 14.72 (4.51) % injected dose per organ
- Ex vivo autoradiography labeling of Aβ depositions in transgenic mice ([2]; Tg2576 mice (29 months old) vs wild-type, i.v., brains removed at 30 min postinjection): intensive labeling of Aβ depositions
- Selectivity for vascular versus parenchymal amyloid aggregates (ex vivo autoradiography, thioflavin-S and anti-CD31 staining) [2]: selectively bound to amyloid aggregates deposited along vessels but not within parenchyma

Compound: CN(C)c1ccc(-c2nc3ccc(C4=N[O][99Tc-]5(=[O])([NH]4)[NH2+]C(c4ccc6nc(-c7ccc(N(C)C)cc7)sc6c4)=N[O]5)cc3s2)cc1 [[^99mTc]BT2B]
- Biodistribution of radioactivity, Blood ([1]; 2 min after injection): 23.15 (4.78) % injected dose per gram
- Biodistribution of radioactivity, Brain ([1]; 2 min after injection): 0.37 % injected dose per gram and 0.37 (0.11) % injected dose per gram
- Biodistribution of radioactivity, Heart ([1]; 2 min after injection): 9.48 (4.83) % injected dose per gram
- Biodistribution of radioactivity, Intestine ([1]; 2 min after injection): 1.32 (0.21) % injected dose per gram
- Biodistribution of radioactivity, Kidney ([1]; 2 min after injection): 6.04 (0.96) % injected dose per gram
- Biodistribution of radioactivity, Liver ([1]; 2 min after injection): 23.21 (5.72) % injected dose per gram
- Biodistribution of radioactivity, Lung ([1]; 2 min after injection): 22.06 (3.09) % injected dose per gram
- Biodistribution of radioactivity, Pancreas ([1]; 2 min after injection): 2.81 (0.35) % injected dose per gram
- Biodistribution of radioactivity, Spleen ([1]; 2 min after injection): 10.83 (1.58) % injected dose per gram
- Biodistribution of radioactivity, Stomach ([1]; 2 min after injection): 0.69 (0.12) % injected dose per organ
- Biodistribution of radioactivity, Blood ([1]; 10 min after injection): 10.05 (1.78) % injected dose per gram
- Biodistribution of radioactivity, Brain ([1]; 10 min after injection): 0.20 (0.04) % injected dose per gram
- Biodistribution of radioactivity, Heart ([1]; 10 min after injection): 8.62 (2.34) % injected dose per gram
- Biodistribution of radioactivity, Intestine ([1]; 10 min after injection): 1.97 (0.26) % injected dose per gram
- Biodistribution of radioactivity, Kidney ([1]; 10 min after injection): 5.02 (0.40) % injected dose per gram
- Biodistribution of radioactivity, Liver ([1]; 10 min after injection): 33.78 (6.07) % injected dose per gram
- Biodistribution of radioactivity, Lung ([1]; 10 min after injection): 11.97 (1.01) % injected dose per gram
- Biodistribution of radioactivity, Pancreas ([1]; 10 min after injection): 2.19 (0.35) % injected dose per gram
- Biodistribution of radioactivity, Spleen ([1]; 10 min after injection): 14.49 (3.50) % injected dose per gram
- Biodistribution of radioactivity, Stomach ([1]; 10 min after injection): 3.77 (0.56) % injected dose per organ
- Biodistribution of radioactivity, Blood ([1]; 30 min after injection): 3.72 (0.49) % injected dose per gram
- Biodistribution of radioactivity, Brain ([1]; 30 min after injection): 0.10 (0.02) % injected dose per gram
- Biodistribution of radioactivity, Heart ([1]; 30 min after injection): 6.67 (1.52) % injected dose per gram
- Biodistribution of radioactivity, Intestine ([1]; 30 min after injection): 6.44 (1.04) % injected dose per gram
- Biodistribution of radioactivity, Kidney ([1]; 30 min after injection): 3.47 (0.57) % injected dose per gram
- Biodistribution of radioactivity, Liver ([1]; 30 min after injection): 31.45 (3.39) % injected dose per gram
- Biodistribution of radioactivity, Lung ([1]; 30 min after injection): 5.38 (1.16) % injected dose per gram
- Biodistribution of radioactivity, Pancreas ([1]; 30 min after injection): 1.14 (0.25) % injected dose per gram
- Biodistribution of radioactivity, Spleen ([1]; 30 min after injection): 10.91 (1.59) % injected dose per gram
- Biodistribution of radioactivity, Stomach ([1]; 30 min after injection): 6.47 (1.37) % injected dose per organ
- Biodistribution of radioactivity, Blood ([1]; 60 min after injection): 1.81 (0.44) % injected dose per gram
- Biodistribution of radioactivity, Brain ([1]; 60 min after injection): 0.05 (0.01) % injected dose per gram
- Biodistribution of radioactivity, Heart ([1]; 60 min after injection): 7.08 (1.34) % injected dose per gram
- Biodistribution of radioactivity, Intestine ([1]; 60 min after injection): 13.90 (1.52) % injected dose per gram
- Biodistribution of radioactivity, Kidney ([1]; 60 min after injection): 3.13 (0.48) % injected dose per gram
- Biodistribution of radioactivity, Liver ([1]; 60 min after injection): 35.76 (3.34) % injected dose per gram
- Biodistribution of radioactivity, Lung ([1]; 60 min after injection): 4.50 (0.60) % injected dose per gram
- Biodistribution of radioactivity, Pancreas ([1]; 60 min after injection): 1.27 (0.28) % injected dose per gram
- Biodistribution of radioactivity, Spleen ([1]; 60 min after injection): 4.80 (0.63) % injected dose per gram
- Biodistribution of radioactivity, Stomach ([1]; 60 min after injection): 4.20 (1.21) % injected dose per organ
- Selectivity for vascular versus parenchymal amyloid aggregates (ex vivo autoradiography, thioflavin-S and anti-CD31 staining) [2]: specific detection of CAA
